Data taken from patent US20220193062A1 (DENOVO BIOPHARMA LLC, priority 2018, published 2022).
pIC50, pKd: −log10 of the molar value. Like-named read-outs stand apart in the source and are kept apart here.

Legend:
[1] = test system: Bmx, CSK, FGR, BRK, and HCK; conditions: cited from earlier work
[2] = test system: EGFR, Yes, ErbB2, and JAK3; conditions: cited from earlier work
[3] = target: T1, bone marrow tyrosine kinase on chromosome X (BMX) (Homo sapiens, UniProt P51813); conditions: targets Cys496 in the BMX ATP binding domain; cited from earlier work
T1 sequence (P51813 1-675): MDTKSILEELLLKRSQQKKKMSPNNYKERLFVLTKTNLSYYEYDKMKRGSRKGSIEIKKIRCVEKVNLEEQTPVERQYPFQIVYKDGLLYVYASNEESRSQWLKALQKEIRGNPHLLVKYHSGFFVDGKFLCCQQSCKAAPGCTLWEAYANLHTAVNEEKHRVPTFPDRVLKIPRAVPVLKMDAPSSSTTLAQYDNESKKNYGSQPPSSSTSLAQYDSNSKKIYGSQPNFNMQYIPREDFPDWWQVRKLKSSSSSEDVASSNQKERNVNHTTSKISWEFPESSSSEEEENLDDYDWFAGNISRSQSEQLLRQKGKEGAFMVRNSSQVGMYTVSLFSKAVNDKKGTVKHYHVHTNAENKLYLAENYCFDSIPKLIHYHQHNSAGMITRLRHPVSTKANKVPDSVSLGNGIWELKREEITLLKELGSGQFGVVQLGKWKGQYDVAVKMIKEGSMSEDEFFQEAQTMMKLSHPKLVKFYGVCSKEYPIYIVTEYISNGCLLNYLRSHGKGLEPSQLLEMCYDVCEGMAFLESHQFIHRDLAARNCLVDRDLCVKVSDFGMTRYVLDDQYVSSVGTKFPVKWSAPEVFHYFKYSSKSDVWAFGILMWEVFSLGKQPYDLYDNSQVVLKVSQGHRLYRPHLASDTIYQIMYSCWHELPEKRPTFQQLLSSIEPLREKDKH

BTK [4] = target: BTK (Rattus norvegicus, UniProt Q5S255); conditions: read-out: in vivo IC50; rats; cited from earlier work
Plx1 = Plx1 (Xenopus laevis, UniProt P70032); conditions: cited from earlier work
PLK3 = PLK3 (Homo sapiens, UniProt Q9H4B4); conditions: cited from earlier work
BTK [5] = target: BTK (Homo sapiens, UniProt Q06187); conditions: cited from earlier work
[6] = target: T2, interleukin-2-inducible T-cell kinase (ITK) (Homo sapiens, UniProt Q08881); conditions: cited from earlier work
T2 sequence (Q08881 1-620): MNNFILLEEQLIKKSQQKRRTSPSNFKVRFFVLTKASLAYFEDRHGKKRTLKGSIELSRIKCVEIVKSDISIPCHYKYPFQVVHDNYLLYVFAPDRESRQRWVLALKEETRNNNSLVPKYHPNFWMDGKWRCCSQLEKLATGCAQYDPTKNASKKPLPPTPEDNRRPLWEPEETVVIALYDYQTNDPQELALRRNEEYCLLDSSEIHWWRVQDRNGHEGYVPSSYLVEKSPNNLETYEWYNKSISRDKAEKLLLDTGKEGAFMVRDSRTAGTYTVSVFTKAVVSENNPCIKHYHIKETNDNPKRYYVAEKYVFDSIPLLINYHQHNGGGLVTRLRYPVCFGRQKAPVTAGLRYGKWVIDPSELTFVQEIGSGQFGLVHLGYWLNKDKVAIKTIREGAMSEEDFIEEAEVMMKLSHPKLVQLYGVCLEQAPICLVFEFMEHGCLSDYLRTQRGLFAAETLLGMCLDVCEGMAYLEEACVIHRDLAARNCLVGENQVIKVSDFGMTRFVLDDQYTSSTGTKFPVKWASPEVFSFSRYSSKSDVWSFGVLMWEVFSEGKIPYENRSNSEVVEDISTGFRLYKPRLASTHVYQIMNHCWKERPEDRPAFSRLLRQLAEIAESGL

[7] = test system: ABC and GCB types of DLBCL cell lines; test: Cell Titer-Glo cell viability, enzastaurin alone, 9 DLBCL cell lines; type: cell-based; conditions: 72 h; read-out: 50% inhibitory concentration (IC50) of cell proliferation
[8] = test system: p-BTK in HBL-1 and TMD8 cells; test: Western blot of p-BTK after enzastaurin; type: cell-based; conditions: 2 hours treatment
HBL-1 cells [9] = test: Apoptosis assay, annexin V flow cytometry; type: cell-based; conditions: HBL-1, 48 h
[10] = test system: PARP, XIAP, MCL-1, caspase-3, Bcl-2 in HBL-1 cells; test: Western blot of proteins associated with apoptosis; type: cell-based; conditions: HBL-1, 48 hours
HBL-1 cells [11] = test: Transwell invasion assay (Matrigel); type: cell-based; conditions: HBL-1, 2 micromolar enzastaurin and/or 0.02 micromolar ibrutinib
HBL-1 cells [12] = test: Transwell migration assay; type: cell-based; conditions: HBL-1, 2 micromolar enzastaurin and/or 0.02 micromolar ibrutinib
[13] = test system: signals downstream of BCR in HBL-1, TMD-8, and SU-DHL-6 cells; test: Western blot of downstream BCR signalling; type: cell-based
HBL-1 cells [14] = test: Whole-transcriptome RNA-seq; type: cell-based; conditions: HBL-1, 24 hours
[15] = test system: ABC-DLBCL HBL-1 cells engrafted in NPG mice; test: HBL-1 lymphoma xenograft model; type: in vivo; conditions: for tumour weight: end of the experiment (day 39), vehicle 1321.50±168.84 mg; for reduction of tumor volume: enzastaurin 50 mg/kg BID oral, ibrutinib 12 mg/kg QD oral, 21 days
SU-DHL-5 = test: Cell proliferation assay (Cell Titer AQueous One Solution), Example 2; type: cell-based; conditions: Homo sapiens; SU-DHL-5, 72 h, 0.014 μM-10 μM
SU-DHL-6 = test: as above; type: cell-based; conditions: Homo sapiens; SU-DHL-6, 72 h, 0.014 μM-10 μM
DLBCL patients [16] = conditions: Phase I/II studies, cited from earlier work
high-risk DLBCL patients = conditions: enzastaurin alone, after remission of B cell lymphoma; cited from earlier work
DLBCL patients [17] = conditions: DLBCL trials of enzastaurin; cited from earlier work
relapsed DLBCL patients = conditions: cited from earlier work

Plx1, sequence (P70032 whole entry): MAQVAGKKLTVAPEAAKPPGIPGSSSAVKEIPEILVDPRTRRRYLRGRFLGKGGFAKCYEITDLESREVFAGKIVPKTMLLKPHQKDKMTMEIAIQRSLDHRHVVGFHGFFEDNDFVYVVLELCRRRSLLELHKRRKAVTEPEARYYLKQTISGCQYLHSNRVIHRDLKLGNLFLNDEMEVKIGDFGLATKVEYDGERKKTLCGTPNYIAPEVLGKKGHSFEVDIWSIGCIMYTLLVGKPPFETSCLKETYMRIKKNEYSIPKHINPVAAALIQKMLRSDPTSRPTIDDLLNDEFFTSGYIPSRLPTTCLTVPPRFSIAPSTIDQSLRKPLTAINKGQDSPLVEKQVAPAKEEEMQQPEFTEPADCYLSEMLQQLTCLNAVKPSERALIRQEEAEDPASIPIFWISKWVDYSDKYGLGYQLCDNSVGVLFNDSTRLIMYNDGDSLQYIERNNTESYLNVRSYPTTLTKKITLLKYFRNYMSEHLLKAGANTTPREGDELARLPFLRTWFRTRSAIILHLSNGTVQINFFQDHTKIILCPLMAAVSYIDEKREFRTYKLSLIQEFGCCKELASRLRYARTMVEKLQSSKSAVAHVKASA
PLK3, sequence (Q9H4B4 whole entry, species assumed): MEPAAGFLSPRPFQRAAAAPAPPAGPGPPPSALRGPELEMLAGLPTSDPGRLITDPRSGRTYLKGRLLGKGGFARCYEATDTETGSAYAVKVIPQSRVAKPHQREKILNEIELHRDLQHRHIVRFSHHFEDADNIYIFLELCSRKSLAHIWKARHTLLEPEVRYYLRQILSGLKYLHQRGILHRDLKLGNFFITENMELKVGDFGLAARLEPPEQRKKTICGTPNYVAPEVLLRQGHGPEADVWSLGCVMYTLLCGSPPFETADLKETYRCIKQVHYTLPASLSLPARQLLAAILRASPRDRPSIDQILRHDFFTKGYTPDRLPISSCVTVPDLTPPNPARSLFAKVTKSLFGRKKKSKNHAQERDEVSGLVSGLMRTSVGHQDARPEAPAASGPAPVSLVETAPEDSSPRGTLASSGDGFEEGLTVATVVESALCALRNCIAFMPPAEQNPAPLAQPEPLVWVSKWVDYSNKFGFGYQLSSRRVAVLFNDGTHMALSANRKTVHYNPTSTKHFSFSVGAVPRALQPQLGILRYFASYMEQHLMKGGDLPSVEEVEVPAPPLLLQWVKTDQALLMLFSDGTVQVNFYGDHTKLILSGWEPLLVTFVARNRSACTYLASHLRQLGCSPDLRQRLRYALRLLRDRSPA
BTK (Rattus norvegicus, UniProt Q5S255), sequence (Q5S255 1-660): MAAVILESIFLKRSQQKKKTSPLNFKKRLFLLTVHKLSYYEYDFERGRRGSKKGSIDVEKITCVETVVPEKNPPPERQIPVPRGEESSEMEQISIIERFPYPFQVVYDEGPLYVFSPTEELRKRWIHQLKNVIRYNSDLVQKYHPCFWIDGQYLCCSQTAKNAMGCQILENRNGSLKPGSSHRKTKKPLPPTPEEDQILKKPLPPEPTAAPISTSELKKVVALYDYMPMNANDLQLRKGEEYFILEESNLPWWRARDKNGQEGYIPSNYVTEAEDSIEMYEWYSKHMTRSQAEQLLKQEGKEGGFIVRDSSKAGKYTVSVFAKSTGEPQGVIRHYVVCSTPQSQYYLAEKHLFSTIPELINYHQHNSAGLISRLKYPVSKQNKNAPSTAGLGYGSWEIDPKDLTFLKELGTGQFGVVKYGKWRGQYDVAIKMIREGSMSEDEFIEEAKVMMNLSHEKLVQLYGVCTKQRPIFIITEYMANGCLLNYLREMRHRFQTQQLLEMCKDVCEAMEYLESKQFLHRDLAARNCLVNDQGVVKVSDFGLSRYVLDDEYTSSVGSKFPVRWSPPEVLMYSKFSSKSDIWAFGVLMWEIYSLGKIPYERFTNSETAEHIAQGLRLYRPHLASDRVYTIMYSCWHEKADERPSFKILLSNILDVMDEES
BTK (Homo sapiens, UniProt Q06187), sequence (Q06187 whole entry, species assumed): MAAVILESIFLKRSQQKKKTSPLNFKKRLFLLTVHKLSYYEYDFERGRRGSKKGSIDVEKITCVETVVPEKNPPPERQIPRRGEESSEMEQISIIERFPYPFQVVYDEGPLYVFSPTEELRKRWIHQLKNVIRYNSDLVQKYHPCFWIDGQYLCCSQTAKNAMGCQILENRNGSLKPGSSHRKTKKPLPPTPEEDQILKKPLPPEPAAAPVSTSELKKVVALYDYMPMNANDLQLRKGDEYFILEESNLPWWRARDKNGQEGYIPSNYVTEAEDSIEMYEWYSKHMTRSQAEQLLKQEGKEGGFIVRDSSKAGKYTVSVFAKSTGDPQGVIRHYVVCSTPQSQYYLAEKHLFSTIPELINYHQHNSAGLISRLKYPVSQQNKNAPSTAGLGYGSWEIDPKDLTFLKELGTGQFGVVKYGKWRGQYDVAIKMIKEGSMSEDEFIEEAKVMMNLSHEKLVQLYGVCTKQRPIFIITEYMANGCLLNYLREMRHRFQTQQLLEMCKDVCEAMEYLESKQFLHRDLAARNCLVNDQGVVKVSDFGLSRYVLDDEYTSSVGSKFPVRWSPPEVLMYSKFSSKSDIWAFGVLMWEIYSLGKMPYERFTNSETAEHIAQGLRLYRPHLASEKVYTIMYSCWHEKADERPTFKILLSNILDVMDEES

C=CC(=O)N1CCC[C@@H](n2nc(-c3ccc(Oc4ccccc4)cc3)c3c(N)ncnc32)C1 (racemic) [PCI-32765]
inhibition of Bmx, CSK, FGR, BRK, and HCK [1]: moderate inhibition
activity on EGFR, Yes, ErbB2, and JAK3 [2]: lower activity

C=CC(=O)Nc1cc(-n2c(=O)ccc3cnc4ccc(-c5ccc(NS(C)(=O)=O)cc5)cc4c32)ccc1C [BMX-IN-1]
pIC50 [3]: 8.10

Cc1c(NC(=O)c2cc3c(s2)CCCC3)cccc1-c1cn(C)c(=O)c(Nc2ccc([C@@H]3C(=O)N(C)CCN3C)cc2)n1 [GDC-0834]
pIC50 (BTK [4]): 5.25

C/C(O)=C(\C#N)C(=O)Nc1cc(Br)ccc1Br [LFM-A13]
pIC50 (Plx1): 5.00
pIC50 (PLK3): 4.21

NC(=O)[C@H]1CCN(c2ncnc(N)c2F)C[C@@H]1N1CCC[C@@H](Nc2cc(Cl)cc(C(F)(F)F)c2)C1=O [SNS-062]
pKd (BTK [5]): 9.52
pKd [6]: 8.66

Cn1cc(C2=C(c3cn(C4CCN(Cc5ccccn5)CC4)c4ccccc34)C(=O)NC2=O)c2ccccc21 [enzastaurin]
pIC50 [7]: 4.80 to 5.17
p-BTK level [8]: significant upregulation
apoptosis as measured by annexin V staining (HBL-1 cells [9]; enzastaurin alone (concentration in FIG. 3a)): 25.5±5.4%
cleavage of PARP and caspase-3 [10]: increase the cleavage of PARP and caspase-3 slightly
invasive abilities (HBL-1 cells [11]): 97.0 % of control
migration abilities (HBL-1 cells [12]): 79.0 % of control
phosphorylation of glycogen synthase kinase 3β (GSK3β) ([13]; low doses, 60 min and 120 min): clearly reduced
p-BTK, p-ERK and p-AKT expression ([13]; short-term and low-dose treatment): increasing
downregulated genes contained in the combination treatment group (HBL-1 cells [14]): 365 genes
share of downregulated transcripts contained in the combination treatment group (HBL-1 cells [14]): Approximately 91%
transcripts significantly down (HBL-1 cells [14]; 2 micromolar enzastaurin and/or 0.02 micromolar ibrutinib, p<0.05): 339 transcripts
tumour weight [15]: 1151.62 ± 163.79 mg
reduction of tumor volume [15]: weak activity
pIC50 (SU-DHL-5): 5.44
pIC50 (SU-DHL-6): 5.23
patients experiencing FFP 20˜50 months (DLBCL patients [16]; 4/55 patients): 7%
patients with prolonged freedom from progression (FFP≥4 cycles) (DLBCL patients [16]; 8/55 patients): 15%
disease-free survival (DFS) (high-risk DLBCL patients): did not significantly improve
survival of DGM1-positive over DGM1-negative patients (DLBCL patients [17]): significantly improved survival

C=CC(=O)N1CCC[C@@H](n2nc(-c3ccc(Oc4ccccc4)cc3)c3c(N)ncnc32)C1 [ibrutinib]
apoptosis as measured by annexin V staining (HBL-1 cells [9]; first-listed of two ibrutinib doses (FIG. 3a)): 15.9±6.0%
apoptosis as measured by annexin V staining (HBL-1 cells [9]; second-listed of two ibrutinib doses (FIG. 3a)): 19.0±6.7%
invasive abilities (HBL-1 cells [11]): 85.0 % of control
migration abilities (HBL-1 cells [12]): 70.2 % of control
phosphorylation of BTK and AKT [13]: reduced
phosphorylation of mTOR, PLCγ2, ERK and P38 ([13]; combination compared to each monotherapy alone): mild effect
tumour weight [15]: 1141.80 ± 235.57 mg
reduction of tumor volume [15]: weak activity
overall response rate (ORR) (relapsed DLBCL patients; patients with ABC-DLBCL (14/38)): 37%
overall response rate (ORR) (relapsed DLBCL patients; patients with GCB-DLBCL (1/20)): 5%
